pKd: −log10 of the molar value.
Tests used:
Format in all cases: binding
[1] = biological target: T1, human mitochondrial malate dehydrogenase (hMDH2) (Homo sapiens, UniProt P40926); experiment: crystal structure ([…] Å; also with NAD, 4WLU, […] Å)
T1 construct: gene MDH2
T1 sequence (P40926 19-338): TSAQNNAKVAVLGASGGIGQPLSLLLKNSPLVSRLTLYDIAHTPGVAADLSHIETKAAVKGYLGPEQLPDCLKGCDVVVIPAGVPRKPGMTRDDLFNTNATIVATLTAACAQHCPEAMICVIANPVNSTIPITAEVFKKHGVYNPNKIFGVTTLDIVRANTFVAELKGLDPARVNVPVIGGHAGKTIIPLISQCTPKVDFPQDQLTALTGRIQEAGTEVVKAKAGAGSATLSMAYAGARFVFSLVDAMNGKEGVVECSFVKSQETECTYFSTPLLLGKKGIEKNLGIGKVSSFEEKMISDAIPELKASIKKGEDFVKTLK

[2] = biological target: T1, human mitochondrial malate dehydrogenase (hMDH2); experiment: ITC direct titration; crystal structure with oxaloacetate
[3] = biological target: T1, human mitochondrial malate dehydrogenase (hMDH2); experiment: crystal structure ([…] Å); competitive replacement ITC with NADH
[4] = biological target: T1, human mitochondrial malate dehydrogenase (hMDH2); experiment: crystal structure ([…] Å)
[5] = biological target: T1, human mitochondrial malate dehydrogenase (hMDH2); experiment: crystal structure of the ternary complex with NADH ([…] Å)
[6] = biological target: T1, human mitochondrial malate dehydrogenase (hMDH2); experiment: crystal structure ([…] Å); enzyme activity increased by phosphate

Compound: O=C(O)C[C@H](O)C(=O)O [L-malate]
- crystal structure (2.20 Å; also with NAD, 4WLU, 2.14 Å) [1]: Both L-malate and citrate bound in the same site of hMDH2 and formed hydrogen bonds with the surrounding residues

Compound: NC(=O)C1=CN([C@@H]2O[C@H](COP(=O)(O)OP(=O)(O)OC[C@H]3O[C@@H](n4cnc5c(N)ncnc54)[C@H](O)[C@@H]3O)[C@@H](O)[C@H]2O)C=CC1 [NADH]
- pKd [2]: 5.52

Compound: NC(=O)c1ccc[n+]([C@@H]2O[C@H](COP(=O)([O-])OP(=O)(O)OC[C@H]3O[C@@H](n4cnc5c(N)ncnc54)[C@H](O)[C@@H]3O)[C@@H](O)[C@H]2O)c1 [NAD]
- pKd [3]: 2.64

Compound: O=C(O)CC(O)(CC(=O)O)C(=O)O [citrate]
- crystal structure (1.90 Å) [4]: The citrate occupied the substrate binding site in the refined structure.

Compound: O=C(O)CC(=O)C(=O)O [oxaloacetate]
- crystal structure of the ternary complex with NADH (2.50 Å) [5]: Arg104 paired with only one oxygen atom of oxaloacetate

Compound: O=P(O)(O)O [phosphate]
- crystal structure (2.28 Å); enzyme activity increased by phosphate [6]: two phosphate ions were located in the substrate binding site and a third in the position of the ribose ring
